Measurements published in patent publication US20040157845A1, “Vanilloid receptor ligands and their use in treatments” (Amgen Inc., priority 2003, published 2004).

Structure (SMILES) | melting point [°C]
Clc1cccc(Cl)c1Nc1nc(-c2nc3cc(Br)ccc3[nH]2)cs1 [Example 74] | 267 to 268
O=C(Nc1ccc(C(F)(F)F)cc1)c1csc(Nc2ncccc2Cl)n1 [Example 75] | 186 to 187
O=C(Nc1ccc(Br)cc1)c1csc(Nc2ncccc2Cl)n1 [Example 76] | 226 to 258
O=C(Nc1ccc(Br)cc1)c1coc(Cc2c(Cl)cccc2Cl)n1 [Example 78] | 164 to 165
